{"source": "paper PMC11890623", "about": "“Pseudomonas aeruginosa acyl-CoA dehydrogenases and structure-guided inversion of their substrate specificity” (Nature Communications, 2025)", "key": {"FadE2": {"molecular_target": "T1, FadE2 (Pseudomonas aeruginosa, UniProt Q9I610)", "T1 construct": "gene PA0508; full-length ORF, His6 tag removed by TEV", "T1 sequence (Q9I610 entry or part of it)": "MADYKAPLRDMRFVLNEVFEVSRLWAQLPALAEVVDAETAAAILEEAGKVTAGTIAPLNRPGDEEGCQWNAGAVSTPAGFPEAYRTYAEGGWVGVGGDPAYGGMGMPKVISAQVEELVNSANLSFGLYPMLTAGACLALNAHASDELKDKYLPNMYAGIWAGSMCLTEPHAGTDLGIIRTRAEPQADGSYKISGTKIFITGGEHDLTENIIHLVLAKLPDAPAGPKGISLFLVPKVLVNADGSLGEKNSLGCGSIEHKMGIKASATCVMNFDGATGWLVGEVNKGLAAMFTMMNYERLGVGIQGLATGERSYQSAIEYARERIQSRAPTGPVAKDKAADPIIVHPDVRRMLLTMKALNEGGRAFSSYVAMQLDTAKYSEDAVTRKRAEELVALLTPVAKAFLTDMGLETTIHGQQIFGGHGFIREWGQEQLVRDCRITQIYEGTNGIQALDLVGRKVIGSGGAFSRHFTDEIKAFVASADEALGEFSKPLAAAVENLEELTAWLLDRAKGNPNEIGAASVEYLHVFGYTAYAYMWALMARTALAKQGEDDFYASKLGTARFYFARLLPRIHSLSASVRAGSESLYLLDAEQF", "assay": "X-ray crystal structure, […] Å", "format": "binding"}, "FadE1": {"molecular_target": "T2, FadE1 (Pseudomonas aeruginosa, UniProt Q9I612)", "T2 construct": "gene PA0506; full-length ORF, His6 tag removed by TEV", "T2 sequence (Q9I612 entry or part of it)": "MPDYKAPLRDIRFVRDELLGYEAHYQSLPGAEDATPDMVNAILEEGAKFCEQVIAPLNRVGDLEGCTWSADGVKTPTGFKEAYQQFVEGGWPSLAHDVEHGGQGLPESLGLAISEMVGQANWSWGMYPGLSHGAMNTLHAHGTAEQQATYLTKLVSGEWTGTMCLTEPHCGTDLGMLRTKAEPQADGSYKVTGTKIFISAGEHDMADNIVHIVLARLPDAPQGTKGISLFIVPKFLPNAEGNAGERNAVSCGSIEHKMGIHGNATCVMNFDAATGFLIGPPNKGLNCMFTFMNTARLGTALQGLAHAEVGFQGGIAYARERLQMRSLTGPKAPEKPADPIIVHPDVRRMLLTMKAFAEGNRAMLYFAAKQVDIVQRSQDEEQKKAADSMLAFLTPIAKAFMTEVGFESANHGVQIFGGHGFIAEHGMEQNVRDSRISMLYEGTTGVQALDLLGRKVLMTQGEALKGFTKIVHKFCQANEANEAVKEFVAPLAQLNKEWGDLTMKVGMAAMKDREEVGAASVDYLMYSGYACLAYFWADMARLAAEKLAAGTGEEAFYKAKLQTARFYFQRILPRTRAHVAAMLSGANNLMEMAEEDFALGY", "assay": "X-ray crystal structure, […] Å", "format": "binding"}}, "data": [{"smiles": "Cc1cc2nc3c(=O)[nH]c(=O)nc-3n(C[C@H](O)[C@H](O)[C@H](O)COP(=O)(O)OP(=O)(O)OC[C@H]3O[C@@H](n4cnc5c(N)ncnc54)[C@H](O)[C@@H]3O)c2cc1C", "note": "[FAD]", "values": [{"measurement": "X-ray crystal structure, 1.94 Å", "setting": "FadE2", "value": "One FAD molecule was bound in each protomer of FadE1 and FadE2."}, {"measurement": "X-ray crystal structure, 2.08 Å", "setting": "FadE1", "value": "One FAD molecule was bound in each protomer of FadE1 and FadE2."}]}]}
